Source: patent publication US20060063711A1, “Use of sglt homolog” (priority 2002, published 2006)

Assays:
hamster small intestine = assay: glucose uptake in small intestine by the organ culture system; settings: hamster jejunal slices, NaCl + 30 μM Phlorizin, 10 minutes at 37° C.
Procedure: The glucose uptake level was determined by the intestinal organ culture system in accordance with the procedures described in Peptides, 19: 1249-1253, 1998 and J. Agric. Food Chem., 48: 5618-5623, 2000. The carotid was cut in mice, rats, guinea pigs and hamsters under ether anesthesia to put them to death. The jejunal region was excised, mesenteric fats were removed, the tract was dissected and the contents were washed and cut in 1 cm length. The jejunal slices were washed 3 times with a buffer solution (125 mM N-Methyl-D-Glucamine (NMDG), 1.2 mM KH2PO4, 2.5 mM CaCl2, 1.2 mM MgSO4, 4 mM Glutamine, 10 mM HEPES (pH 7.2), 0.1 mg/ml BSA) and then transferred to a 48-well plate by one slice/well. […]. The jejunal slices were transferred to a mini-vial for liquid scintillation counting. After 500 μl of tissue solubilizer Solvable (Perkin Elmer LifeSciences) was added thereto, the mixture was treated at 50° C. for 2 hours to solubilize the tissues. After 5 ml of liquid scintillator Ultima Gold-XR (Perkin Elmer LifeSciences) was added, ^14C and ^3H taken up into the jejunal slices were counted. […]

[1] = system: rat SGLT homolog (rSGLTh); assay: α-methyl glucose uptake in CHO cells expressing rSGLTh; format: cell-based; settings: control = NMDG without NaCl
Procedure: In accordance with the procedures described in Example 4 of WO 02/53738, the CHO cell lines expressing the human SGLT homolog (hSGLTh), mouse SGLT homolog (mSGLTh), rat SGLT homolog (rSGLTh), human SGLT1 (hSGLT1) and human SGLT2 (hSGLT2) were prepared, respectively, and used for experiments. The experimental uptake of α-methyl glucose, which is a glucose analog selectively taken up into the cells by SGLT, was carried out according to the method described in Am. J. Physiol., 270: G833-G843, 1996 and J. Clin. Invest., 93: 397-404, 1994. The cells were plated on 100 μl of DMEM containing 10% FBS charged in a 96-well plate in a cell density of 1×10^5 cells/well, followed by culturing overnight at 37° C. The cells were washed 3 times with 150 μl of a buffer solution (125 mM N-Methyl-D-Glucamine, 1.2 mM KH2PO4, 2.5 mM CaCl2, 1.2 mM MgSO4, 4 mM Glutamine, 10 mM HEPES (pH 7.2), 0.1 mg/ml BSA) and cultured for an hour in the same buffer solution to remove the remaining glucose. The buffer solution was removed and replaced with 90 μl of the same buffer solution or the buffer solution containing NaCl or NaCl+Phlorizin (Sigma) in place of N-Methyl-D-Glucamine (NMDG). […] The radioactivity of ^14C taken up into the cells was counted with 100 μl of a liquid scintillator added per well.

[2] = target: T1, human SGLT homolog (hSGLTh) (Homo sapiens, UniProt Q2M3M2, I269M); assay: α-methyl glucose uptake in CHO cells expressing hSGLTh; format: cell-based; settings: for Uptake of α-Methyl Glucose (% based on Control Group): hSGLTh CHO cells, control = NMDG without NaCl
T1 construct: expressed in transfected cells; host or cells: CHO cells
T1 sequence (Q2M3M2 8-681 I269M limits assumed): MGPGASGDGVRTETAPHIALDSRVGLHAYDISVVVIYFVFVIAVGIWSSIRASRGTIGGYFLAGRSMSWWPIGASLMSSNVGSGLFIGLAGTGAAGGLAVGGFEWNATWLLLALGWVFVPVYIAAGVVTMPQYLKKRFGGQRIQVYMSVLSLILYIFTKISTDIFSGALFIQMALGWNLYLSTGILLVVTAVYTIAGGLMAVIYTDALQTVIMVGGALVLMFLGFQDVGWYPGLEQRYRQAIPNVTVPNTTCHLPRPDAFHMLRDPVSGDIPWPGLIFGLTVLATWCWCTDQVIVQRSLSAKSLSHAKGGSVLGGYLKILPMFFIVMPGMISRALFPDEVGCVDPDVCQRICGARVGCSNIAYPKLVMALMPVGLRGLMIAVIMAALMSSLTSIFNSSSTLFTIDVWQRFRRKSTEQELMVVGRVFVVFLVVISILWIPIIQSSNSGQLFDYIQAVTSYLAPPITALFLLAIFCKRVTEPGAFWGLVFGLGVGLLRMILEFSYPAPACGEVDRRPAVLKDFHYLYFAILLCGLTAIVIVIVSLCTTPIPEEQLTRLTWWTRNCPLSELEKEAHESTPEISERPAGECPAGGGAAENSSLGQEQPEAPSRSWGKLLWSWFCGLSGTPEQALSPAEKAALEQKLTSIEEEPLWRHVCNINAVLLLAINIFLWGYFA
Procedure: (§1) In accordance with the procedures described in Example 4 of WO 02/53738, the CHO cell lines expressing the human SGLT homolog (hSGLTh), mouse SGLT homolog (mSGLTh), rat SGLT homolog (rSGLTh), human SGLT1 (hSGLT1) and human SGLT2 (hSGLT2) were prepared, respectively, and used for experiments. The experimental uptake of α-methyl glucose, which is a glucose analog selectively taken up into the cells by SGLT, was carried out according to the method described in Am. J. Physiol., 270: G833-G843, 1996 and J. Clin. Invest., 93: 397-404, 1994. The cells were plated on 100 μl of DMEM containing 10% FBS charged in a 96-well plate in a cell density of 1×10^5 cells/well, followed by culturing overnight at 37° C. The cells were washed 3 times with 150 μl of a buffer solution (125 mM N-Methyl-D-Glucamine, 1.2 mM KH2PO4, 2.5 mM CaCl2, 1.2 mM MgSO4, 4 mM Glutamine, 10 mM HEPES (pH 7.2), 0.1 mg/ml BSA) and cultured for an hour in the same buffer solution to remove the remaining glucose. The buffer solution was removed and replaced with 90 μl of the same buffer solution or the buffer solution containing NaCl or NaCl+Phlorizin (Sigma) in place of N-Methyl-D-Glucamine (NMDG). After one-hour incubation with 10 μl of 1 mM α-methyl glucose (containing 0.02 μCi of [^14C]-α-Methyl Glucose (Amersham Pharmacia Biotech)) per well, the cells were washed 3 times with 200 μl of chilled PBS buffer. The radioactivity of ^14C taken up into the cells was counted with 100 μl of a liquid scintillator added per well.

[3] = target: T2, mouse SGLT homolog (mSGLTh) (Mus musculus, UniProt Q8VDT1); assay: α-methyl glucose uptake in CHO cells expressing mSGLTh; format: cell-based; settings: for Uptake of α-Methyl Glucose (% based on Control Group): mSGLTh CHO cells, control = NMDG without NaCl
T2 construct: expressed in transfected cells; host or cells: CHO cells
T2 sequence (Q8VDT1 8-685 limits assumed): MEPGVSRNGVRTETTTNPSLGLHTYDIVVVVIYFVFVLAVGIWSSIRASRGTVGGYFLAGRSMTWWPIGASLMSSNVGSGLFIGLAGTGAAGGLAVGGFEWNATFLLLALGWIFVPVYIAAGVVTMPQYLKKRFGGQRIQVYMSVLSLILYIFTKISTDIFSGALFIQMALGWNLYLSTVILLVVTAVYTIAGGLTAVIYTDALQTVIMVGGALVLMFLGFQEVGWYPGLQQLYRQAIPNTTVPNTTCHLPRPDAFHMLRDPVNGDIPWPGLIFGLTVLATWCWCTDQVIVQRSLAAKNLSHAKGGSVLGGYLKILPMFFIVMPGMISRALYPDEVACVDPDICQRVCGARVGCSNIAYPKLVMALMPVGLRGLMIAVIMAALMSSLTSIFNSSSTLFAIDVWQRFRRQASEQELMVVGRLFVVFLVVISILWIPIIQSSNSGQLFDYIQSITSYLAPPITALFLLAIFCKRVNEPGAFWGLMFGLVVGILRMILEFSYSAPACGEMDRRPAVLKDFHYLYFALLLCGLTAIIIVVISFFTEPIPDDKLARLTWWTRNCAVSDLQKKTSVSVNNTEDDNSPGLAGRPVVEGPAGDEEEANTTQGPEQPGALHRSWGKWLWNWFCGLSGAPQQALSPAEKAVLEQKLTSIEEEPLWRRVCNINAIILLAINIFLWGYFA
Procedure: as §1

## O=C(CCc1ccc(O)cc1)c1c(O)cc(O)cc1O[C@@H]1O[C@H](CO)[C@@H](O)[C@H](O)[C@H]1O [phlorizin]
Hamster small intestine
  SGLT activity (α-methyl glucose uptake) resistance to phloridzin: strongly resistant
[1]; NaCl + 15 μM phlorizin
  Uptake of α-Methyl Glucose (% based on Control Group): 643 ± 76%
[1]; NaCl + 500 μM
  Uptake of α-Methyl Glucose (% based on Control Group): 118 ± 6%
[2]; NaCl + 3 μM phlorizin
  Uptake of α-Methyl Glucose (% based on Control Group): 570 ± 142%
[2]; NaCl + 100 μM phlorizin
  Uptake of α-Methyl Glucose (% based on Control Group): 124 ± 19%
[2]; human SGLT homolog compared with SGLT1 and SGLT2
  resistance to phlorizin: more potent than in SGLT1 and SGLT2
[3]; NaCl + 15 μM phlorizin
  Uptake of α-Methyl Glucose (% based on Control Group): 521 ± 35%
[3]; NaCl + 500 μM
  Uptake of α-Methyl Glucose (% based on Control Group): 78 ± 8%
[3]; mouse SGLT homolog compared with SGLT1 and SGLT2
  resistance to phlorizin: more potent than in SGLT1 and SGLT2
